Source: patent publication USRE29675E, “O-(Halophenylcarbamyl)-N-(halophenyl) glycolamides” (Stauffer Chemical Company, priority 1977, dated 1978)
In brackets after ≈: the same amount, converted by molar mass.

What was measured:
Type in all cases: cell-based
[1] = test system: Desulfovibrio desulfuricans; test: Sulfate Reducing Bacteria In Vitro Test; conditions: Sulfate API broth with tryptone, anaerobic, room temperature, 3 to 5 days, unit from method text, read-out: minimum inhibitory concentration necessary to control the organism
Protocol: This test measures the bactericidal properties of a compound when in contact with a sulfate reducing bacteria, specifically Desulfovibrio desulfuricans. The test is conducted by dissolving the test compound in acetone to give an 0.5 percent solution. This toxicant is added to vials containing sterile Sulfate API broth with tryptone under anaerobic conditions at such levels to give final toxicant concentrations of 1, 5, 10 and 50 μg/ml. of solution. An inoculant solution of 0.5 ml of the growing organism, Desulfovibrio desulfuricans, is added to the vials followed by sufficient sterile distilled water to give a total of 10 ml. of solution in the vials. […] The following is a summary of the minimum inhibitory concentration necessary to control the organism.

[2] = test system: Trichophyton mentagrophytes; test: In Vitro Agar Screening Test, fungi; conditions: Emmons agar, 30° C., indicates partial control at this concentration, read-out: Minimum Inhibitory Concentration
Protocol: (§1) This test measures the bactericidal, fungicidal and algaecidal properties of a compound when in contact with growing bacteria, fungi or algae in an artifical medium. The test is conducted by adding 20 ml. portions of a suitable warm sterile agar solution into 20 × 100 mm. Petri dishes. Then, the test compound, in 0.5 percent acetone solution, is added to the Petri dishes at levels of 1, 10 and 50 μg/ml. and mixed with the warm mobile agar solution. The treated agar mixture is then allowed to come to room temperature and solidify. Cells of the chosen organism are streaked on the surface of the solidified agar and are then incubated for such lengths of time that untreated samples containing no toxicant show luxurious growth typical of the particular organism. This time varies from 24 hours to one week depending on the particular organism. The fungi are incubated at 30° C. and the bacteria are incubated at 37° C. The algae are incubated at room temperature under artificial light. Nutrient agar is used as the medium in this test for the bacteria. Potato dextrose agar is used as the medium for the fungi with the exception of Trichophyton mentagrophytes for which Emmons agar is used. A modified Jack Meyers agar is used for the growth of the algae.
(§2) The extent of growth is noted at the end of the incubation period.
(§3) Representative organisms used in this test are as follows: […]

Staphylococcus aureus = test: In Vitro Agar Screening Test, bacteria; conditions: Stapylococcus aureus, nutrient agar, 37° C., read-out: Minimum Inhibitory Concentration
Protocol: as §1, §2, §3

Enterobacter aerogenes = test: In Vitro Agar Screening Test, bacteria; conditions: Klebsiella aerogenes, nutrient agar, 37° C., indicates partial control at this concentration, read-out: Minimum Inhibitory Concentration
Protocol: as §1, §2, §3

stapylococcus aureus = test: In Vitro Vial Test (bactericidal, nutrient broth); conditions: 168 h, sealed vial incubated one week, read-out: Concentration (PPM) Which Inhibited Growth
Protocol: The following test illustrates utility of the compounds in controlling bacteria. This test measures the bactericidal properties of a compound when in contact with a growing bacterium. The test is conducted by partially filling a 1-ounce vial with nutrient broth. Next the test compound is added to the vial at a certain concentration, expressed in parts per million, and mixed with the broth. A water suspension of cells of stapylococcus aureus is added. The vial is then sealed and incubated for one week.

[3] = test system: Brevibacterium ammoniagenes; test: In Vitro Agar Screening Test, bacteria; conditions: Corynebacterium ammoniagenes, nutrient agar, 37° C., read-out: Minimum Inhibitory Concentration
Protocol: as §1, §2, §3

Aspergillus oryzae = test: In Vitro Agar Screening Test, fungi; conditions: potato dextrose agar, 30° C., read-out: Minimum Inhibitory Concentration
Protocol: as §1, §2, §3

Scenedesmus obliquus = test: In Vitro Agar Screening Test, algae; conditions: Tetradesmus obliquus, modified Jack Meyers agar, room temperature, artificial light, indicates partial control at this concentration, read-out: Minimum Inhibitory Concentration
Protocol: as §1, §2, §3

Bacillus cereus = test: In Vitro Agar Screening Test, bacteria; conditions: nutrient agar, 37° C., indicates partial control at this concentration, read-out: Minimum Inhibitory Concentration
Protocol: as §1, §2, §3

MIC [1] [µg/mL] | MIC (Staphylococcus aureus) [µg/mL] | MIC [3] [µg/mL] | MIC (Aspergillus oryzae) [µg/mL] | SMILES | MIC (stapylococcus aureus) [µg/mL] | also measured
50 (≈ 134 µM) | 1 (≈ 2.68 µM) | 5 (≈ 13.4 µM) | 5 (≈ 13.4 µM) | O=C(COC(=O)Nc1ccc(Cl)cc1)Nc1ccc(Cl)c(Cl)c1 [Compound 1] | 0.25 (≈ 0.669 µM) | MIC [2]: 5 µg/mL (≈ 13.4 µM); MIC (Enterobacter aerogenes): 1 µg/mL (≈ 2.68 µM); MIC (Scenedesmus obliquus): 1 µg/mL (≈ 2.68 µM)
 |  |  |  | O=C(COC(=O)Nc1cccc(Cl)c1)Nc1ccc(Cl)cc1 [Compound 3] | 5 (≈ 14.7 µM) | 
10 (≈ 26.8 µM) | 1 (≈ 2.68 µM) | 5 (≈ 13.4 µM) | > 50 | O=C(COC(=O)Nc1cccc(Cl)c1)Nc1ccc(Cl)c(Cl)c1 [Compound 2, O-(3-Chlorophenylcarbamyl)-N-(3,4-dichlorophenyl)-glycolamide] | 0.25 (≈ 0.669 µM) | MIC (Bacillus cereus): 1 µg/mL (≈ 2.68 µM)
 |  |  |  | O=C(COC(=O)Nc1cccc(Br)c1)Nc1ccc(Cl)c(Cl)c1 [Compound 6] | 0.5 (≈ 1.2 µM) | 
 |  |  |  | O=C(COC(=O)Nc1ccc(Cl)c(Cl)c1)Nc1ccc(Cl)c(Cl)c1 [Compound 5] | 1 (≈ 2.45 µM) | 
 |  |  |  | O=C(COC(=O)Nc1ccc(Cl)c(Cl)c1)Nc1ccc(Cl)cc1 [Compound 4] | 1 (≈ 2.68 µM) | 
